TGI and GI50 data for 13 molecules are collected here from PubChem BioAssay (NCI).

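Growth conditions: 96-well plates. Treatment: test compound, 48 hours, 5 concentrations. Analysis: linear interpolation between bracketing concentrations; unreached endpoints set to highest concentration. GI50 marks 50% less growth. TGI: concentration producing complete growth inhibition.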

Among the test systems are 786-0 renal; IGROV1 ovarian; MALME-3M melanoma; NCI-H460 lung; SK-MEL-28 melanoma; SNB-19 CNS; SNB-75 CNS; UO-31 renal; MOLT-4 leukemia; MDA-MB-231 breast.
Common to all, as to experiment: NCI-60 cell line screen, 48 h

Take `C1CCCCC2(CCCCCCCCC3(CCC1)SCCS3)SCCS2`: the TGI in the assay with 786-0 renal, with IGROV1 ovarian, in the assay on MALME-3M melanoma, in the assay on NCI-H460 lung, with SK-MEL-28 melanoma and in the assay on SNB-19 CNS was above 100 µM each time. The TGI in the assay with SNB-75 CNS is above 100 µM.

In the case of `COC(=O)CCC1(CCC(=O)OC)CCCCCCC(CCC(=O)OC)(CCC(=O)OC)C(=O)C1=O`, the TGI with 786-0 renal, in the assay on IGROV1 ovarian, in the assay with MALME-3M melanoma, with NCI-H460 lung, in the assay on SK-MEL-28 melanoma and in the assay on SNB-19 CNS was above 100 µM in each case. Moreover, the TGI in the assay on SNB-75 CNS is above 100 µM; in the assay with UO-31 renal it was 76.7 µM.

With `O=C1C(CO)=C[C@H](O)[C@H]2O[C@@H]12`, the TGI in the assay with IGROV1 ovarian was 473 µM; with MALME-3M melanoma it was 319 µM; in the assay on MOLT-4 leukemia, 355 µM; with NCI-H460 lung it was 420 µM; in the assay on SK-MEL-28 melanoma it was 294 µM; in the assay with SNB-19 CNS, above 625 µM. The figures for the TGI in the assay with SNB-75 CNS and in the assay on UO-31 renal were 561 µM and 507 µM, respectively.

With `O=c1[nH]ncc2[nH]c3c4ccccc4ccc3c12`, the TGI with 786-0 renal, with MALME-3M melanoma, with MOLT-4 leukemia, with NCI-H460 lung and in the assay with UO-31 renal was above 100 µM throughout.

Take `c1ccc2c(c1)NCc1cc3ccccc3nc1O2`: the TGI in the assay with IGROV1 ovarian, in the assay with MALME-3M melanoma, in the assay on MOLT-4 leukemia, with NCI-H460 lung, in the assay on SK-MEL-28 melanoma and in the assay on SNB-19 CNS was above 100 µM in each case. Moreover, the figures for the TGI in the assay with SNB-75 CNS and in the assay on UO-31 renal were above 100 µM and above 31.6 µM, respectively.

Turning to `O=C(N/N=C\c1cccc2ccccc12)Nc1ccccc1`, the TGI with IGROV1 ovarian, with MALME-3M melanoma, with MOLT-4 leukemia, in the assay on NCI-H460 lung, in the assay on SK-MEL-28 melanoma and in the assay on SNB-19 CNS was above 100 µM each time. For the same molecule, the TGI in the assay on SNB-75 CNS and in the assay on UO-31 renal was above 100 µM each time.

Consider `Clc1ccc(-c2cc(-c3cc4cc(Br)ccc4nc3Cl)on2)cc1`, for which the TGI was above 50 µM with 786-0 renal; above 50 µM in the assay on IGROV1 ovarian; above 50 µM in the assay with MALME-3M melanoma; 47.3 µM with MOLT-4 leukemia; 22.6 µM with NCI-H460 lung; 29.3 µM in the assay on SK-MEL-28 melanoma. For the same molecule, the TGI in the assay with SNB-19 CNS, in the assay on SNB-75 CNS and in the assay with UO-31 renal was above 50 µM each time.

As to `Cc1cc(N/N=C/c2nc(-c3ccc(Cl)cc3)oc2C)c2cc(Br)ccc2n1`, the GI50 with IGROV1 ovarian is 3.14 µM; in the assay with MALME-3M melanoma, 1.91 µM; in the assay on MDA-MB-231 breast it was 3.43 µM; with MOLT-4 leukemia, 2.66 µM; with NCI-H460 lung it was 1.88 µM; in the assay on SK-MEL-28 melanoma it was 2.07 µM. Further, the GI50 with SNB-19 CNS is 4.13 µM; in the assay with UO-31 renal, 13.9 µM. For the same molecule, the TGI came out at 16.7 µM with IGROV1 ovarian; 4.23 µM in the assay on MALME-3M melanoma; 12 µM in the assay on MDA-MB-231 breast; 13.5 µM in the assay on MOLT-4 leukemia; 3.67 µM with NCI-H460 lung; 4.49 µM in the assay with SK-MEL-28 melanoma. Further, the TGI with SNB-19 CNS was determined as 17.7 µM; with UO-31 renal it was 26.8 µM.

As for `O=C(Nc1cccc(F)c1)c1cc2ccc(O)cc2oc1=Nc1cccc(F)c1`, the TGI is above 100 µM in the assay with 786-0 renal; 5.73 µM with IGROV1 ovarian; 84 µM with MALME-3M melanoma; 32.4 µM in the assay with MOLT-4 leukemia; above 100 µM in the assay on NCI-H460 lung; above 100 µM in the assay with SK-MEL-28 melanoma. The TGI in the assay on SNB-19 CNS and with UO-31 renal was above 100 µM in each case.

Turning to `CCCCc1ccc(-n2sc3ncc(-c4ccccc4)cc3c2=O)cc1`, the TGI in the assay with 786-0 renal, with IGROV1 ovarian, with MOLT-4 leukemia, in the assay on NCI-H460 lung, in the assay with SK-MEL-28 melanoma and in the assay on SNB-19 CNS was above 100 µM each time. For the same molecule, the TGI in the assay on SNB-75 CNS and with UO-31 renal was above 100 µM each time.

Consider `Cc1cccc2oc3c(c(=O)c12)CC(O)C(C)(C)O3` (stereo not drawn), for which the TGI in the assay on 786-0 renal is above 100 µM; in the assay on IGROV1 ovarian, above 100 µM; in the assay with MALME-3M melanoma, above 100 µM; with MOLT-4 leukemia it was 83.2 µM; with NCI-H460 lung, above 100 µM; with SK-MEL-28 melanoma, above 100 µM. Besides, the TGI in the assay with SNB-19 CNS and in the assay with UO-31 renal was above 100 µM throughout.

In the case of `O=c1oc(-c2ccc(O)cc2)cc2cc(O)ccc12`, the TGI was above 100 µM in the assay with 786-0 renal; above 100 µM with IGROV1 ovarian; 72.3 µM in the assay on MALME-3M melanoma; 69.2 µM with MOLT-4 leukemia; 58.2 µM in the assay with NCI-H460 lung; 93.6 µM in the assay on SNB-19 CNS. Further, the figures for the TGI in the assay on SNB-75 CNS and with UO-31 renal were above 100 µM and 81.3 µM, respectively.

As for `N#CCCN(CCC#N)c1ccc(/C=C2\N=C(c3ccccc3)N(c3ccc(C(=O)O)cc3)C2=O)cc1`, the TGI with 786-0 renal is above 100 µM; in the assay on IGROV1 ovarian it was 53.3 µM; with MDA-MB-231 breast, above 100 µM; with NCI-H460 lung it was above 100 µM; in the assay with SK-MEL-28 melanoma it was above 100 µM; in the assay with SNB-19 CNS it was above 100 µM. Besides, the TGI in the assay on UO-31 renal was above 100 µM.
